Measured values as given in patent US20190365776A1, “THERAPEUTIC AGENT FOR OCULAR FUNDUS DISEASE” (KYUSHU UNIVERSITY, NATIONAL UNIVERSITY CORPORATION, priority 2013, published 2019).

What was measured:
[1] = tested on: b-END3 (bEND.3) mouse brain microvascular endothelial cells; assay: Tight junction test: Claudin-5 immunostaining in b-END3 cells; type: cell-based; conditions: pretreatment 3 μM or 30 μM, 3 hours; VEGF 25 ng/mL or IL-6 10 ng/mL, 24 hours
Description: (§1) According to a conventional method, b-END3 (bEND.3: ATCC CRL-2299™) cells, which are mouse brain microvascular endothelial cells, were subcultured in 3.5 cm dishes (9×10^5 cells/dish), and a test was started from day 6 after subculture. […]
(§2) The cells after the test were subjected to immunostaining according to the following procedure to evaluate the expression of Claudin-5 or F-Actin. […] Then, a cover glass-sized cell sample was prepared by trimming with a cotton swab, enclosed with a Dako pen, blocked with 10% normal goat serum (10% normal goat serum ready-to-use (Invitrogen)) (30 min, ordinary temperature), and allowed to stand at 4° C. overnight. […]

[2] = tested on: mice CNV (Choroidal Neovascularization) model; assay: Mice CNV (choroidal neovascularization) model, laser photocoagulation; type: in vivo, C57BL/6JJcl mice; conditions: ocular instillation three times a day, day 0 to day 7, control 109177±26399
Description: The effectiveness of the compound 1 in a mice CNV model known as a model of age-related macular degeneration or the like was examined in the following manner.
Compound 1 solutions prepared in the same manner as in Example 1: 0.4% solution, 0.8% solution (instillation volume: 20 μL)
Test animals: C57BL/6JJcl mice (6- to 10-week old, sex: male, 11 to 12 mice per group)
The preparation of a CNV model and evaluation were performed with reference to a literature (e.g., J. Leukoc. Biol. 2003; 74: 25-32, or Am. J. Pathol. 1998; 153: 1641-1646). More specifically, each of the mice was given tropicamide by ocular instillation to cause mydriasis, anesthetized by intraperitoneal administration of 100 mg/kg of Ketalar and 10 mg/kg of Selactar, and subjected to photocoagulation at 4 spots per eye. The photocoagulation was performed by krypton laser irradiation (75-μm spot size, 0.1 seconds duration, 200 mW) with a slit-lamp delivery system using a cover glass as a contact lens. Test groups were a saline instillation group (control), a 0.4% compound 1 solution instillation group, and a 0.8% compound 1 solution instillation group. […] More specifically, a spot with bleeding or tissue destruction was excluded, the CNV volume of each spot adopted was calculated by NIS-Elements AR Version 4.13, and then an average value (μm^3) per eye was calculated.

[3] = tested on: b-END3 (bEND.3) mouse brain microvascular endothelial cells; assay: Tight junction test: F-Actin immunostaining in b-END3 cells; type: cell-based; conditions: pretreatment 3 μM or 30 μM, 3 hours; VEGF 25 ng/mL or IL-6 10 ng/mL, 24 hours
Description: as §1, §2

Kimba (trVEGF029) mice = assay: Kimba (trVEGF029) mice, fluorescein fundus angiography and optical coherence tomography; type: in vivo; conditions: 0.8% solution, ocular instillation three times a day for 2 weeks
Description: The effectiveness of the compound 1 in Kimba (trVEGF029) mice known as mice transgenic for VEGF gene, which develop retinal neovascularization, was examined in the following manner.
Compound 1 solution prepared in the same manner as in Example 1: 0.8% solution (instillation volume: 20 μL)
Test animals: Kimba mice (available from Lions Eye Institute Ltd., 6 mice per group)
One-month-old Kimba mice born on the same day were given saline (control) or the 0.8% compound 1 solution by ocular instillation three times a day for 2 weeks, and were then subjected to fluorescein fundus angiography and optical coherence tomography under anesthesia for evaluation. More specifically, in fluorescein fundus angiography, each of the mice was first given tropicamide by ocular instillation to cause mydriasis and then anesthetized by intraperitoneal administration of 100 mg/kg of Ketalar and 10 mg/kg of Selactar, given 6 μL/g of a contrast agent for fluorescein fundus angiography by intraperitoneal injection, and subjected to fluorescein fundus angiography using Heidelberg Retina Angiograph (HRA, Heidelberg, Germany). […]

With `C[C@H]1CNCCCN1S(=O)(=O)c1cccc2cncc(F)c12` [compound 1, (S)-(−)-1-(4-fluoro-5-isoquinolinesulfonyl)-2-methyl-1,4-homopiperazine] the “Claudin-5 expression decreased by VEGF stimulation or IL-6 stimulation” value [1] was “improvement in Claudin-5 expression”, the “CNV volume (mean±standard error, average per eye)” value ([2]; 0.4% solution) was 56408±9007 μm^3 and the “CNV volume (mean±standard error, average per eye)” value ([2]; 0.8% solution) was 88387±33678 μm^3. For the same compound, the “F-Actin polymerization caused by VEGF stimulation or IL-6 stimulation” value [3] was “suppression of F-Actin polymerization”, the “edema (fluorescein fundus angiography / optical coherence tomography images)” value (Kimba (trVEGF029) mice) was “suppression of edema is observed” and the “average maximum retinal thickness (mean±standard error)” value (Kimba (trVEGF029) mice; optical coherence tomography, saline control 361.8±36.1) was 256.7±35.7 μm.
